Some test systems named below: A549; HCC 2998; HT-29; Hs-578T; MDA-MB-231; MOLT-4; Malme-3M; NCI-H522; SF-539; SK-OV-3; SNB-19; SW-620; T47D; TK-10; UACC-257; UO-31; OVCAR-4; OVCAR-5; RXF 393; SK-MEL-2.
What all share (assay): growth of human tumour cells (NCI), 48 h

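Tested at 5 concentrations; 48 h exposure; 96-well plates; endpoints linearly interpolated, else capped at highest concentration. GI50 marks 50% less growth.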 The source made the active and inactive calls. Cut-off read from the data, not from the text of the source: active = GI50 up to about 1.1 µM and inactive = higher.

`COc1cccc(C2SC(=N)Nc3c2c(C)nn3C(=O)Cc2ccccc2)c1` (stereo unspecified): the GI50 with A549, in the assay with HCC 2998, in the assay on HT-29, with Hs-578T, in the assay with MDA-MB-231 and in the assay with MOLT-4 was > 100 µM (inactive) in each case. Further, the GI50 with Malme-3M, in the assay with NCI-H522, in the assay with SF-539, in the assay with SK-OV-3, in the assay with SNB-19 and in the assay with SW-620 was > 100 µM (inactive) in each case. Moreover, the GI50 with T47D, in the assay on TK-10, with UACC-257 and with UO-31 was > 100 µM (inactive) throughout.
For `Cn1c(=O)c2c(nc(Cc3ccccc3)n2CC(=O)O)n(C)c1=O`, the GI50 in the assay on A549, in the assay with HCC 2998, in the assay with HT-29, in the assay with Hs-578T, in the assay with MDA-MB-231 and with MOLT-4 was > 100 µM (inactive) throughout. Besides, the GI50 in the assay on Malme-3M, in the assay on NCI-H522, in the assay on OVCAR-4, in the assay with OVCAR-5, with RXF 393 and in the assay on SK-MEL-2 was > 100 µM (inactive) each time. For the same compound, the GI50 in the assay with SNB-19, in the assay on SW-620, with T47D, in the assay with TK-10, with UACC-257 and in the assay on UO-31 was > 100 µM (inactive) in each case.
Take `CCOC(=O)/C(=N/Nc1ccccc1)N1C(=S)N(C)N=C(C)C=C1S`: the GI50 is > 100 µM (inactive) in the assay with A549; > 100 µM (inactive) in the assay on HCC 2998; > 100 µM (inactive) in the assay with HT-29; 70 µM (inactive) in the assay with Hs-578T; 43.9 µM (inactive) in the assay with MDA-MB-231; > 100 µM (inactive) in the assay with MOLT-4. Further, the GI50 in the assay with NCI-H522 is 27 µM (inactive); with OVCAR-4, > 100 µM (inactive); in the assay with OVCAR-5, > 100 µM (inactive); in the assay on RXF 393 it was 0.465 µM (active); with SF-539, > 100 µM (inactive); in the assay on SK-MEL-2, > 100 µM (inactive). Besides, the GI50 was > 100 µM (inactive) with SK-OV-3; > 100 µM (inactive) in the assay with SNB-19; > 100 µM (inactive) in the assay with SW-620; 44.2 µM (inactive) in the assay with T47D; 86.1 µM (inactive) in the assay with TK-10; > 100 µM (inactive) with UACC-257. Moreover, in the assay on UO-31, the GI50 was > 100 µM (inactive).
Take `OC1CSCCSCCCSCCSC1`: the GI50 with A549, in the assay on HCC 2998, with HT-29, in the assay with Hs-578T, in the assay with MDA-MB-231 and in the assay with MOLT-4 was > 100 µM (inactive) throughout. Besides, the GI50 in the assay on NCI-H522, with OVCAR-4, in the assay on OVCAR-5, in the assay with RXF 393, with SF-539 and with SK-MEL-2 was > 100 µM (inactive) each time. For the same compound, the GI50 with SK-OV-3, in the assay on SNB-19, in the assay on SW-620, in the assay with T47D, in the assay on TK-10 and in the assay on UACC-257 was > 100 µM (inactive) throughout. The GI50 with UO-31 was > 100 µM (inactive).
Turning to `O=C(Cc1ccccc1)NN1C(=O)/C(=C\c2ccc(O)cc2)S/C1=N\c1ccccc1`, the GI50 in the assay on A549 was > 100 µM (inactive); in the assay with HCC 2998 it was > 100 µM (inactive); with HT-29, > 100 µM (inactive); in the assay with Hs-578T, > 100 µM (inactive); in the assay with MDA-MB-231 it was > 100 µM (inactive); in the assay on MOLT-4 it was 95.5 µM (inactive). For the same compound, the GI50 in the assay on OVCAR-4, with OVCAR-5, in the assay with RXF 393, in the assay on SF-539, with SK-MEL-2 and in the assay on SK-OV-3 was > 100 µM (inactive) each time. The GI50 was > 100 µM (inactive) in the assay with SNB-19; > 100 µM (inactive) in the assay on SW-620; 41 µM (inactive) in the assay with T47D; > 100 µM (inactive) with TK-10; > 100 µM (inactive) in the assay on UACC-257; > 100 µM (inactive) in the assay on UO-31.
Regarding `OC(c1ccoc1)c1cc2ccccc2s1` (stereo unspecified), the GI50 in the assay on A549, in the assay with HCC 2998, in the assay on HT-29, in the assay with Hs-578T, in the assay with MDA-MB-231 and in the assay with MOLT-4 was > 10 µM (inactive) in each case. For the same compound, the GI50 in the assay with NCI-H522, with OVCAR-4, with OVCAR-5, in the assay with RXF 393, in the assay with SF-539 and in the assay on SK-MEL-2 was > 10 µM (inactive) in each case. For the same compound, the GI50 with SK-OV-3, in the assay on SNB-19, with SW-620, in the assay on T47D, in the assay on TK-10 and in the assay on UACC-257 was > 10 µM (inactive) each time. Further, the GI50 in the assay on UO-31 is > 10 µM (inactive).
`Cc1ccc(-c2c(C#N)c(N)nc3c2CCS(=O)(=O)c2ccccc2-3)cc1`: the GI50 with A549 was > 100 µM (inactive); with HCC 2998, > 100 µM (inactive); in the assay with HT-29, > 100 µM (inactive); in the assay on Hs-578T it was 58.1 µM (inactive); in the assay on MDA-MB-231 it was > 100 µM (inactive); with Malme-3M, 39.4 µM (inactive). Further, the GI50 in the assay with NCI-H522 is > 100 µM (inactive); in the assay on OVCAR-4, 40.6 µM (inactive); in the assay on SK-MEL-2, 49.1 µM (inactive); with SNB-19 it was 50.7 µM (inactive); in the assay on SW-620, > 100 µM (inactive); in the assay on T47D it was 55.5 µM (inactive). Also, the GI50 is 59.7 µM (inactive) in the assay with TK-10, 65 µM (inactive) in the assay on UACC-257 and 90.8 µM (inactive) in the assay on UO-31.
For the compound `COc1ccc(N2C(=O)c3c4c(c5c([nH]c6ncccc65)c3C2=O)CCC(C(C)(C)C)C4)cc1` (stereo unspecified), the GI50 was > 100 µM (inactive) in the assay on A549; > 100 µM (inactive) in the assay with HCC 2998; > 100 µM (inactive) in the assay on HT-29; 28.8 µM (inactive) in the assay on Hs-578T; > 100 µM (inactive) in the assay with MDA-MB-231; > 10 µM (inactive) in the assay with MOLT-4. For the same compound, the GI50 in the assay with NCI-H522 was 67.3 µM (inactive); in the assay with OVCAR-4, > 100 µM (inactive); in the assay with RXF 393, 34.6 µM (inactive); with SF-539, 41.9 µM (inactive); in the assay on SK-OV-3 it was 40.6 µM (inactive); in the assay with SNB-19, 65.3 µM (inactive). The GI50 is > 100 µM (inactive) in the assay with SW-620; > 100 µM (inactive) with T47D; 66.4 µM (inactive) in the assay on TK-10; > 100 µM (inactive) in the assay with UACC-257; > 100 µM (inactive) in the assay on UO-31.

The values above are taken from ChEMBL document CHEMBL1201862, “PubChem BioAssay data set” (2004).
